In BindingDB's records for doi:10.1016/j.ejmech.2021.113381 (University of Texas Medical Branch, 2021) one finds IC50 data, which are given here for 1 molecule.

Where a name gives a salt, the structure may show the parent alone.

Usually IC50 stands for the point on the concentration scale where inhibition reaches its midpoint. Low values mean greater potency in that assay, high ones weaker potency in that assay.

The experiment can be described thus: Inhibition of ASM (unknown origin)-mediated KRAS mislocalization from plasma membrane.

Molecule `CC(NCCC(c1ccccc1)c1ccccc1)c1ccccc1` (stereo unspecified) [FENDILINE HYDROCHLORIDE] gave an IC50 of 5.6 µM.
